According to publication PMC7497086, “Fluorophore‐Labeled Cyclic Nucleotides as Potent Agonists of Cyclic Nucleotide‐Regulated Ion Channels” (Chembiochem, 2020):

Experiments:
Assay type in all cases: biochemical
[1] = target: T1, Heterotetrameric CNGA2:A4:B1b channels (Rattus norvegicus, UniProt A0A8I5ZN27+Q00195+Q64359); assay: Patch-clamp activation of heterotetrameric olfactory CNGA2:A4:B1b channels, inside-out patches of Xenopus oocytes; details: inside-out patches, +10 mV
T1 construct: expressed in transfected cells; host or cells: Xenopus laevis oocytes injected with cRNA (CNGA2:CNGA4:CNGB1b at 2:1:1)
Protocol: First, the effect of the compounds on olfactory CNG channels with natural composition was tested. […] To determine the potency of the ligands, full concentration‐activation relationships were generated. These relationships were fitted with Equation 1 (Experimental Section), yielding the concentration of half maximum activation (EC 50) and the Hill coefficient (H a).
(§1) Molecular biology and heterologous expression of CNG and HCN channels: The subunits CNGA2 (accession No. AF126808), CNGA4 (accession no. U12623) and CNGB1b (accession no. AF068572) of rat olfactory channels as well as mouse HCN2 channels (NM008226) were subcloned in front of the T7 promoter of pGEMHEnew. The corresponding cRNAs were produced with the mMESSAGE mMACHINE T7 Kit (Ambion, Austin, TX, USA).
(§2) Oocytes at stages IV and V were injected with 50–130 ng cRNA encoding either CNGA2, CNGA2 : CNGA4 : CNGB1b (2 : 1 : 1 ratio) or HCN2 channels either manually or mediated by an injection robot (RoboInject®). The injected oocytes were incubated at 18 °C for up to 6 days in Barth's medium containing (in mM) 84 NaCl, 1 KCl, 2.4 NaHCO3, 0.82 MgSO4, 0.41 CaCl2, 0.33 Ca(NO3)2, 7.5 TRIS, cefuroxime (4.0 μg/mL) and penicillin/streptomycin (100 μg/mL), pH 7.4.
(§3) Electrophysiology: Macroscopic currents were recorded in inside‐out patches of the oocytes expressing hundreds to several thousand of the desired channels by using the patch‐clamp technique. The patch pipettes were pulled from quartz tubing (P‐2000, Sutter Instrument, Novato, USA) with an outer and inner diameter of 1.0 and 0.7 mm (VITROCOM, New Jersey, USA). The corresponding pipette resistance was 0.9–2.3 MΩ. The bath and pipette solution contained (in mM): 150 KCl, 1 EGTA, 20 HEPES (pH 7.4) for CNG channel measurements. For HCN channel measurements the bath solution contained (in mM): 100 KCl, 10 EGTA, 10 HEPES (pH 7.2) and the pipette (in mM) 120 KCl, 10 HEPES, 1 CaCl2 (pH 7.2). All experiments were performed at room temperature by using an Axopatch 200B amplifier (Axon Instruments, Foster City, CA, USA). Electrophysiology was controlled by the Patchmaster‐software (HEKA Elektronik Dr. Schulze GmbH, Lambrecht, Germany). The sampling rate was 5 kHz and the filter implemented in the amplifier (4‐pole Bessel) was set to 2 kHz. Measurements in HCN2 channels were started 3.5 minutes after patch excision, to minimize run down phenomena.18 The solutions with the different ligand concentrations to be studied were applied by a multi‐barrel device to the patches with a flow rate of 0.8 to 1.2 mL/min. The concentration of the fluorescent ligands was verified by UV/Vis spectroscopy.
(§4) where I is the actual current amplitude and I max the maximum current amplitude at saturating concentration of each cyclic nucleotide. EC 50 is the ligand concentration generating half maximum current and H a the respective Hill coefficient.

[2] = target: T2, Homotetrameric CNGA2 channels (Rattus norvegicus, UniProt Q00195); assay: Patch-clamp activation of homotetrameric CNGA2 channels, inside-out patches of Xenopus oocytes
T2 construct: expressed in transfected cells; host or cells: Xenopus laevis oocytes injected with CNGA2 cRNA
T2 sequence (Q00195 1-664): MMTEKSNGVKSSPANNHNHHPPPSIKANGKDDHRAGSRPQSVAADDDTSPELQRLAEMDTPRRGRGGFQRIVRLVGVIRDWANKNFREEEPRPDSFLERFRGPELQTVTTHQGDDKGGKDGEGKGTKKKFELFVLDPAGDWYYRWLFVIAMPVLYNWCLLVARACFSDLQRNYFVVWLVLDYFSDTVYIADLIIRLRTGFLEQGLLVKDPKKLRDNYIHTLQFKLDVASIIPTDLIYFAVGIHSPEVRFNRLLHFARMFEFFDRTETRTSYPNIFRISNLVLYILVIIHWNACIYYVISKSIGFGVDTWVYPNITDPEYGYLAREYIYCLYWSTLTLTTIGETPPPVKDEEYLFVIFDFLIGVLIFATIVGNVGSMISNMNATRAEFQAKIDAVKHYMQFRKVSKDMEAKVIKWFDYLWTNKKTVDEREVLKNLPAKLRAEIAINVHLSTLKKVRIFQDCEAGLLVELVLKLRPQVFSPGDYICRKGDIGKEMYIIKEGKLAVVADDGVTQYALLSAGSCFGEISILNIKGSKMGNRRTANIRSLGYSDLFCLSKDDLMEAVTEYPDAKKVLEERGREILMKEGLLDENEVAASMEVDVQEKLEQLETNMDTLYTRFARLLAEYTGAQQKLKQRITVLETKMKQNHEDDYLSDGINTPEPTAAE
Source text: Moreover, we studied the effect of the nucleotide derivatives on homotetrameric CNGA2 channels.
as §1, §2, §3, §4

[3] = target: T3, heterotetrameric olfactory CNG channels (Rattus norvegicus, UniProt A0A8I5ZN27+Q00195+Q64359); assay: Confocal patch-clamp fluorometry (cPCF): ligand binding and activation, heterotetrameric CNG channels; details: Figure 4A
T3 construct: expressed in transfected cells; host or cells: Xenopus laevis oocytes injected with cRNA (CNGA2:CNGA4:CNGB1b at 2:1:1)
Source text: (§5) As expected from the above data, the binding profile of 10 was similar for the two different types of ion channels, yielding similar BC 50 and H b values.
(§6) Confocal patch‐clamp fluorometry: Ionic current and binding of the fluorescent ligand in macropatches were simultaneously measured by cPCF as described before.2a, 2b The patch pipettes were pulled from borosilicate glass tubing with an outer and inner diameter of 2.0 and 1.0 mm (Hilgenberg GmbH, Malsfeld, Germany). After fire polishing, the corresponding pipette resistance was 0.7–1.2 MΩ. The bath and pipette solution contained (in mM): 150 KCl, 1 EGTA, 5 HEPES (pH 7.4) for CNG channel measurements. To distinguish the fluorescence of the unbound fluorescent ligand from that of the bound fluorescent ligands, the fluorescent dye DY647 was added to the bath solution at a concentration of 5 μM. The fluorescent ligand and DY647 were excited at 543 and 633 nm, respectively, with a HeNe laser system and an AchroGate beam splitter. Fluorescence intensity from the bath and pipette solution were normalized on each other and the surplus of the green fluorescence of the patch dome with respect to the red fluorescence was used to quantify the bound ligands. The actual relative fluorescence (F) was normalized in each patch with respect to the maximum relative fluorescence (F max) at a saturating concentration of the fluorescent ligand. […]

[4] = target: T4, homotetrameric olfactory CNG channels (Rattus norvegicus, UniProt Q00195); assay: Confocal patch-clamp fluorometry (cPCF): ligand binding and activation, homotetrameric CNG channels; details: Figure 4B
T4 construct: expressed in transfected cells; host or cells: Xenopus laevis oocytes injected with CNGA2 cRNA
T4 sequence (Q00195 1-664): T2 sequence (Q00195 1-664)
Source text: as §5, §6

[5] = unit only in the axis title [10] (μM)

T1 sequence (Q64359 whole entry, one chain of several): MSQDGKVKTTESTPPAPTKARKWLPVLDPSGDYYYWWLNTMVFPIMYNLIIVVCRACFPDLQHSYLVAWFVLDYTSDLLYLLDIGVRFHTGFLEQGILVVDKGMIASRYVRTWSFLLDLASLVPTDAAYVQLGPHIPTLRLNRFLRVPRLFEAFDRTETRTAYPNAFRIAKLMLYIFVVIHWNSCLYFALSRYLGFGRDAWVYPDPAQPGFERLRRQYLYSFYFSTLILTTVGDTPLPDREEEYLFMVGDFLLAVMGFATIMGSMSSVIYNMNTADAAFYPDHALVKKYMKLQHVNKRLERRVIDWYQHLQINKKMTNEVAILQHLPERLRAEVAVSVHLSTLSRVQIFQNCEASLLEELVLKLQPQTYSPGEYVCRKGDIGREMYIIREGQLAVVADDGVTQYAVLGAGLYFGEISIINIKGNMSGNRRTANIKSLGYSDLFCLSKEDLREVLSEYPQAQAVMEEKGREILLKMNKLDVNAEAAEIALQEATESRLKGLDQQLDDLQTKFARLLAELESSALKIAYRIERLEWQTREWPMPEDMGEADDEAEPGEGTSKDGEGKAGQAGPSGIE
T1 sequence (A0A8I5ZN27 1-858 isoform A0A8I5ZN27-2, one chain of several): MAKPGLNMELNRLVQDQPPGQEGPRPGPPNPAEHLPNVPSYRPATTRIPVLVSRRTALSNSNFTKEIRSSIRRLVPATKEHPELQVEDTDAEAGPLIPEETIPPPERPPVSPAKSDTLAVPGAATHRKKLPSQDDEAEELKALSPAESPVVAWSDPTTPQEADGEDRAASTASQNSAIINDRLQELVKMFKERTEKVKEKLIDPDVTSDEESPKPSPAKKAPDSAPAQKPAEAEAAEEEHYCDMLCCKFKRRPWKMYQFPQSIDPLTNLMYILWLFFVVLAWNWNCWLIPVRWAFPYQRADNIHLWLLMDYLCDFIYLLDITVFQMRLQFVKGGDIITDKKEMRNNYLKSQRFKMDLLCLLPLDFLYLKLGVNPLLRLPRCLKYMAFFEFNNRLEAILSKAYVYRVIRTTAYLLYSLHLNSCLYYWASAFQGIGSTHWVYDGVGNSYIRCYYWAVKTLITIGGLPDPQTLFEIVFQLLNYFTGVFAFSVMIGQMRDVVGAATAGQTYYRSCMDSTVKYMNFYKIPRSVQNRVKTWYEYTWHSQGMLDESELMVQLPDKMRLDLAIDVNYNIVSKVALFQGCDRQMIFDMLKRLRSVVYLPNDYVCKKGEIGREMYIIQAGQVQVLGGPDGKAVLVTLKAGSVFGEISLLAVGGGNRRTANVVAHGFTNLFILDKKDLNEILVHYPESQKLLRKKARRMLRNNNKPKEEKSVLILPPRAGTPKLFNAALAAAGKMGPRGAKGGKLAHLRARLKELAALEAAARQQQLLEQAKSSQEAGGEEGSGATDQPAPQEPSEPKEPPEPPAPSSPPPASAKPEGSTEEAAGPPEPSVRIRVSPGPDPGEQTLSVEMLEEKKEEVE
T3 sequence (Q64359 whole entry, one chain of several): as the sequence (Q64359 whole entry, one chain of several) above
T3 sequence (A0A8I5ZN27 1-858 isoform A0A8I5ZN27-2, one chain of several): as the sequence (A0A8I5ZN27 1-858 isoform A0A8I5ZN27-2, one chain of several) above

- H a (Hill coefficient of activation) [1]: 2.32±0.16
- EC50 ([1]; concentration of half maximum activation): 630 ± 20 nM
- EC 50 (in words) [2]: nanomolar range
- H a (Hill coefficient of activation) ([2]; inside-out patches): 4.03±0.12
- EC50 ([2]; inside-out patches, concentration of half maximum activation): 650 ± 10 nM
- Hb (Hill coefficient of binding, cPCF) [3]: 1.55
- EC50 [3, 5]: 1.03 ± 0.04 µM
- Hb (Hill coefficient of binding, cPCF) [4]: 1.43
- EC50 [4, 5]: 1.17 ± 0.07 µM
SMILES: CC1(C)C2=C3C=C4C5=[N+](CCC4OC3CCN2c2ccc(CC(=O)NCCCCCc3ccc(Sc4nc6c(=O)[nH]c(N)nc6n4[C@@H]4O[C@@H]6COP(=O)(O)O[C@H]6[C@H]4O)cc3)cc21)c1ccc(S(=O)(=O)[O-])cc1C5(C)C (stereo partly drawn) [Compound 10]
